Results: patent US20070031509A1, “Breakthrough to cure psoriasis, psoriatic arthritis and treatment of other unrelated skin disorders, and external rectal and genital itching” (priority 2005, published 2007)

Key:
eczema = experiment: Earlier use of urea on eczema symptoms of type 2 diabetic patient; type: in vivo, human; conditions: high blood-sugar level, 16 years ago
psoriasis = experiment: Comparison of performance of OTCs, zinc oxide and copper lactate on silvery patches L6-L8; type: in vivo, human
Excerpt: As mentioned above, the presence and growth of L6, L7 and L8 lesions gave me an opportunity to compare the performance of my invention against the readily available OTCs. As mentioned earlier, coal tar, sea salts and several combinations of acids are used for treatment of psoriasis and eczema.
From June 1966 to March 1996, The U. S. Department of Interior (DOI) employed me as a research engineer. During the course of my employment with DOI, I had conducted research in more than 100 coal and salt mines. I have a sound knowledge of the properties of coal and salts. The following comments are based on my experimentations and my in-depth knowledge of the physical and chemical properties of these minerals. Furthermore, based on my own knowledge and past experience with the OTCs, I became suspicious of the validity of the claims made by the manufactures of OTCs containing coal tar and sea salts. Therefore, I designed a simple experimental procedure to compare effectiveness of readily available OTCs to treat psoriasis. Experimental procedure: Before each topical application, each of the three silvery patches was washed with warm soapy water and towel dried. Each OTC product was gently massaged onto all three silvery patches three times daily. Topical applications were made in accordance with the drug manufacturer's recommendations. At the end of four hours, physical observations were made. Silvery patches were again washed and dried and medication was applied again. Each product was tested for a period of four days. After completion of one test series and start of another, silvery patches were left alone for a period of four days to avoid carryover affects from one product to another.
Immune suppressing medications such as Elidel and Protopic and all other prescription drugs known to potentially contribute to cancer were excluded from this test series. Prescription phototherapy and systemics having different course of action and generally, they are not recommended for mild cases of psoriasis. Therefore, these medications were beyond the scope of this study.
Therefore, based on prior knowledge, for extension of this study, an ointment containing 40% zinc oxide was selected for testing.
8. Copper Lactate: Even though during this testing phase, no bleeding points were developed, it was still decided to explore the impact of copper lactate alone on psoriatic lesions. Copper lactate for this test series was produced by reacting yogurt in a copper container rather than a brass utensil.

[1] = after ten days of daily applications

## NC(N)=O [Urea]
eczema
  treatment of dry, flaky, cracked, and bleeding symptoms of eczema: totally ineffective

## CC(O)C(=O)[O-].CC(O)C(=O)[O-].[Cu+2] (stereo not drawn) [copper lactate]
psoriasis; after seven days of topical applications
  reduction in psoriatic lesions: 20%
psoriasis; [1]
  red thickened skin of the lesion whose silvery patch came off: completely disappeared
  reduction in size of remaining two silvery lesions: 20%
  silvery patch of one of the psoriatic lesions: flaked off
psoriasis; after the first day of applications, no bleeding points
  swelling: significant reduction
psoriasis; after three days of applications
  pain and swelling: completely gone
psoriasis; after three days of topical application
  silvery scales: fell off
psoriasis; further topical applications
  silvery patches on the remaining two lesions: have not eliminated
